Experimental findings from ChEMBL document CHEMBL4184110 (Bioorg Med Chem Lett, 2018) are described below.

As a reminder, the EC50 is the concentration that produces a half-maximal response. The kinetic solubility is solubility judged after dilution from a stock solution rather than from solid. Broadly, the IC50 is the midpoint of a concentration-inhibition curve.

Converted amounts (≈) assume the structure as drawn. A value given as a limit tells only on which side of the number the result lay.

Data set [1] has as its target T1, Vitamin D3 receptor (Homo sapiens, UniProt P11473).
T1 sequence (P11473 whole entry): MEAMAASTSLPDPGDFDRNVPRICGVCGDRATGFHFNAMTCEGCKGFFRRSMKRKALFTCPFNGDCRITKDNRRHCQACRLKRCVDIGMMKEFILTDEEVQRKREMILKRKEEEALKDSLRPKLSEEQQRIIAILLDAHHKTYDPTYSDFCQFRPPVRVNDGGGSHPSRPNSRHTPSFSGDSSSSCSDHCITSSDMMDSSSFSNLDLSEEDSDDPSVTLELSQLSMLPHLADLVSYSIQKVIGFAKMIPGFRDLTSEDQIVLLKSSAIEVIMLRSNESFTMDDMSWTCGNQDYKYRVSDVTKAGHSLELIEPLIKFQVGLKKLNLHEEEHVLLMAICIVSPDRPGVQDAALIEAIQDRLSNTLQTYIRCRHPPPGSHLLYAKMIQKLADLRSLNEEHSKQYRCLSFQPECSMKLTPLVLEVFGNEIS
Put plainly: Agonist activity at VDR-LBD (unknown origin) assessed as recruitment of alexa fluor 647-labeled SRC2-3 after 30 mins by fluorescence polarization assay.

A short description of data set [2]: Aqueous solubility of the compound in DMSO at 500 uM by filter based assay. It counts as physicochemical.
For data set [3], the target named is T1, Vitamin D3 receptor. Put plainly: Antagonist activity at CMV-fused VDR (unknown origin) expressed in HEK293T cells assessed as reduction in 24-hydroxylase promoter mediated transcriptional activity by luciferase reporter gene assay. It counts as cell-based. In general terms: Reporter assays use an easily measured gene product as a stand-in for the process of interest.

Data set [4] addresses T2, Peroxisome proliferator-activated receptor delta (Homo sapiens) (UniProt Q03181).
T2 sequence (whole entry): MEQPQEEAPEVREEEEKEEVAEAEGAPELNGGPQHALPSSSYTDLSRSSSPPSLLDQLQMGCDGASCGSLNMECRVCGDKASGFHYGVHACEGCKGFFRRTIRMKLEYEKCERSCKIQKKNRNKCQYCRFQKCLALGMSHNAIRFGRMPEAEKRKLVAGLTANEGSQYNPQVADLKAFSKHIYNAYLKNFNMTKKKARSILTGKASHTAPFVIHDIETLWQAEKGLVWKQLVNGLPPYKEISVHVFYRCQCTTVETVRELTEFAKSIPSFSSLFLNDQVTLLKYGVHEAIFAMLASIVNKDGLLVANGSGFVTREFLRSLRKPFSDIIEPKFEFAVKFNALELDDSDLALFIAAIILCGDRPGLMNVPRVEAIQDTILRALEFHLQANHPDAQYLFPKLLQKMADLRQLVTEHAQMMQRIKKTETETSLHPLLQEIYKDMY
Put plainly: Transactivation of CMV-fused PPARdelta-LBD-GAL4-DBD (unknown origin) expressed in HEK293T cells at 100 uM by luciferase reporter gene assay relative to GW0742. It counts as cell-based.

The target of data set [5] is T1, Vitamin D3 receptor. Put plainly: Antagonist activity at VP16-fused VDR-LBD (unknown origin) expressed in HEK293T cells assessed as inhibition of ligand-induced GAL4-fused SRC1 coactivator recruitment by two-hybrid luciferase reporter gene assay. The data set is classed as cell-based.
The test system of a further data set is HEK-293T. In words: Cytotoxicity against HEK293T cells assessed as decrease in cell viability at 100 uM after 18 hrs by Cell Titer-Glo based luminescence assay relative to control. The settings on record: human.
In data set [6] the target is T3, Peroxisome proliferator-activated receptor delta (Homo sapiens, UniProt Q03181).
T3 sequence (Q03181 whole entry): T2 sequence (whole entry)
In words: Transactivation of CMV-fused PPARdelta-LBD-GAL4-DBD (unknown origin) expressed in HEK293T cells by luciferase reporter gene assay. It counts as cell-based.

Data set [7] addresses T1, Vitamin D3 receptor. Put plainly: Antagonist activity at VDR-LBD (unknown origin) assessed as inhibition of LG190178-induced recruitment of alexa fluor 647-labeled SRC2-3 after 30 mins by fluorescence polarization assay. (Fluorescence polarisation rises when a labelled molecule tumbles more slowly, as on binding a larger partner.)

Consider `COc1cccc(-c2nc(C)c(COc3ccc(CCC(=O)O)cc3)o2)c1`, for which the half-maximal effective concentration (EC50) entry at Vitamin D3 receptor [1] was “Not Active”; in data set [6] (read-out: EC50), 1.4 µM. The kinetic solubility at 500 µM in data set [2] was 234 µM (≈ 86.1 µg/mL). Besides, the half-inhibitory concentration (IC50) on Vitamin D3 receptor [3] (read-out: IC50) is 3.35 µM; on Vitamin D3 receptor [5] it was 26.7 µM; at Vitamin D3 receptor [7], “Not Active”. Moreover, the Activity in data set [4] is 13.7%; in the data set with HEK-293T it was 41.2%.
Take `COc1ccccc1-c1nc(C)c(COc2cccc(C(=O)O)c2)o1`: the results for the EC50 entry (at Vitamin D3 receptor [1]; in data set [6] (read-out: EC50)) were “Not Active” and 0.88 µM, respectively. The molecule further yielded a kinetic solubility at 500 µM in data set [2] of 423 µM (≈ 144 µg/mL). The IC50 entry was “Not Active” on Vitamin D3 receptor [3], over 100 µM at Vitamin D3 receptor [5] and “Not Active” on Vitamin D3 receptor [7]. Further, the Activity in data set [4] was 22%; in the data set on HEK-293T it was “Non-Toxic”.
Take `COC(=O)c1ccc(OCc2oc(-c3ccccc3OC)nc2C)cc1`: the EC50 entry (at Vitamin D3 receptor [1]; in data set [6]) was “Not Active” in each case. In data set [2], this molecule came in with a solubility (kinetic) at 500 µM of 62.6 µM (≈ 22.1 µg/mL). For the same molecule, the IC50 at Vitamin D3 receptor [3] (read-out: IC50) is 4.85 µM; at Vitamin D3 receptor [5], 17.9 µM; on Vitamin D3 receptor [7], “Not Active”. For the same molecule, the Activity in the data set with HEK-293T amounted to 81.5%.
Consider `COc1ccccc1-c1nc(C)c(COc2ccc(C(=O)O)cc2)o1`, for which the 50% effective concentration (EC50) entry on Vitamin D3 receptor [1] was “Not Active”; in data set [6] (read-out: EC50), 8.7 µM. In addition, the kinetic solubility at 500 µM in data set [2] is 460 µM (≈ 156 µg/mL). The 50% inhibitory concentration (IC50) entry at Vitamin D3 receptor [3] is “Not Active”; at Vitamin D3 receptor [5], over 80 µM; on Vitamin D3 receptor [7], “Not Active”. In addition, the Activity in data set [4] was 16%; with HEK-293T it was “Non-Toxic”.
For `COC(=O)c1cccc(OCc2oc(-c3cccc(OC)c3)nc2C)c1`, the concentration for a half-maximal effect (EC50) entry (on Vitamin D3 receptor [1]; in data set [6]) was “Not Active” each time. The same molecule registered a kinetic solubility at 500 µM in data set [2] of 24.1 µM (≈ 8.52 µg/mL). Further, the IC50 on Vitamin D3 receptor [3] (read-out: IC50) was 5.56 µM; on Vitamin D3 receptor [5], 17.1 µM; on Vitamin D3 receptor [7] it was “Not Active”. In addition, in the data set with HEK-293T, the Activity was 59.3%.
`COc1cccc(-c2nc(C)c(COc3cccc(C(=O)O)c3)o2)c1`: the concentration for a half-maximal effect (EC50) result (at Vitamin D3 receptor [1]; in data set [6]) was “Not Active” in each case. In data set [2], this molecule had a kinetic solubility at 500 µM of 498 µM (≈ 169 µg/mL). Moreover, the IC50 on Vitamin D3 receptor [3] (read-out: IC50) is 33.2 µM; at Vitamin D3 receptor [5], 33.1 µM; on Vitamin D3 receptor [7], “Not Active”. Besides, the Activity with HEK-293T is given as 23.9%.
With `COc1cccc(-c2nc(C)c(COc3ccc(CC(=O)O)cc3)o2)c1`, the EC50 entry at Vitamin D3 receptor [1] was “Not Active”; in data set [6] (read-out: EC50), 1.8 µM. Besides, the kinetic solubility at 500 µM in data set [2] worked out at 410 µM (≈ 145 µg/mL). The IC50 on Vitamin D3 receptor [3] (read-out: IC50) was 3.6 µM; at Vitamin D3 receptor [5], 27.7 µM; on Vitamin D3 receptor [7] it was “Not Active”. Moreover, the Activity in data set [4] came out at 8.5%; in the data set on HEK-293T, 34.5%.
Consider `COc1cccc(-c2nc(C)c(COc3ccc(C(=O)O)cc3)o2)c1`, for which the EC50 result on Vitamin D3 receptor [1] is “Not Active”; in data set [6] (read-out: EC50) it was 2.6 µM. In addition, the solubility (kinetic) at 500 µM in data set [2] amounted to 457 µM (≈ 155 µg/mL). Moreover, the IC50 was over 100 µM on Vitamin D3 receptor [3] (read-out: IC50), over 80 µM on Vitamin D3 receptor [5] and “Not Active” at Vitamin D3 receptor [7]. The Activity in data set [4] amounted to 2.1%; in the data set on HEK-293T, 27.2%.
As to `COC(=O)c1ccccc1OCc1oc(-c2cccc(OC)c2)nc1C`, the concentration for a half-maximal effect (EC50) entry (at Vitamin D3 receptor [1]; in data set [6]) was “Not Active” each time. Further, the kinetic solubility at 500 µM in data set [2] is 52.8 µM (≈ 18.7 µg/mL). In addition, the concentration for half-maximal inhibition (IC50) on Vitamin D3 receptor [3] (read-out: IC50) was 6.75 µM; on Vitamin D3 receptor [5], 15.4 µM; on Vitamin D3 receptor [7] it was “Not Active”. In addition, the Activity in the data set with HEK-293T was 94.6%.
For `COc1cccc(-c2nc(C)c(COc3ccccc3C(=O)O)o2)c1`, the EC50 result (at Vitamin D3 receptor [1]; in data set [6]) was “Not Active” in each case. Besides, the solubility (kinetic) at 500 µM in data set [2] amounted to 264 µM (≈ 89.6 µg/mL). In addition, the half-maximal inhibitory concentration (IC50) is 40.4 µM at Vitamin D3 receptor [3] (read-out: IC50), over 33 µM on Vitamin D3 receptor [5] and “Not Active” at Vitamin D3 receptor [7]. Moreover, the Activity in the data set on HEK-293T is 37.3%.
Turning to `COc1ccccc1-c1nc(C)c(COc2ccc(CCC(=O)O)cc2)o1`, the EC50 entry at Vitamin D3 receptor [1] was “Not Active”; in data set [6] (read-out: EC50), 4.6 µM. For the same molecule, the kinetic solubility at 500 µM in data set [2] is 400 µM (≈ 147 µg/mL). In addition, the values for the IC50 at Vitamin D3 receptor [3] (read-out: IC50), at Vitamin D3 receptor [5] and at Vitamin D3 receptor [7] were over 80 µM, over 100 µM and “Not Active”, respectively. Further, the values for the Activity (in data set [4]; in the data set with HEK-293T) were 30% and 2.1%, respectively.
Regarding `COc1ccccc1-c1nc(C)c(COc2ccc(CC(=O)O)cc2)o1`, the 50% effective concentration (EC50) result on Vitamin D3 receptor [1] was “Not Active”; in data set [6] (read-out: EC50) it was 11 µM. Also, in data set [2], the kinetic solubility at 500 µM came out at 436 µM (≈ 154 µg/mL). The IC50 result at Vitamin D3 receptor [3] is “Not Active”; on Vitamin D3 receptor [5], over 80 µM; on Vitamin D3 receptor [7], “Not Active”. Also, the Activity in data set [4] was 48%; with HEK-293T it was “Non-Toxic”.
Regarding `COc1ccccc1-c1nc(C)c(COc2ccccc2C(=O)O)o1`, the EC50 entry (at Vitamin D3 receptor [1]; in data set [6]) was “Not Active” in each case. Moreover, in data set [2], the kinetic solubility at 500 µM is 402 µM (≈ 136 µg/mL). Also, the results for the IC50 result at Vitamin D3 receptor [3], on Vitamin D3 receptor [5] and on Vitamin D3 receptor [7] were “Not Active”, over 80 µM and “Not Active”, respectively. Moreover, the Activity with HEK-293T was found to be 4.1%.
Turning to `COC(=O)CCc1ccc(OCc2oc(-c3ccccc3OC)nc2C)cc1`, the EC50 result (on Vitamin D3 receptor [1]; in data set [6]) was “Not Active” throughout. The same molecule displayed a kinetic solubility at 500 µM in data set [2] of 62.6 µM (≈ 23.9 µg/mL). Further, the concentration for half-maximal inhibition (IC50) at Vitamin D3 receptor [3] (read-out: IC50) is 10.1 µM; at Vitamin D3 receptor [5] it was 13.6 µM; at Vitamin D3 receptor [7], “Not Active”. The Activity in the data set on HEK-293T is reported as 79.9%.
For `COC(=O)c1ccccc1OCc1oc(-c2ccccc2OC)nc1C`, the 50% effective concentration (EC50) result (on Vitamin D3 receptor [1]; in data set [6]) was “Not Active” each time. For the same molecule, in data set [2], the kinetic solubility at 500 µM turned out to be 185 µM (≈ 65.5 µg/mL). Also, the concentration for half-maximal inhibition (IC50) is 3.25 µM on Vitamin D3 receptor [3] (read-out: IC50), 20.2 µM on Vitamin D3 receptor [5] and “Not Active” at Vitamin D3 receptor [7]. Besides, the Activity in the data set on HEK-293T came to 54.1%.
In the case of `COC(=O)CCc1ccc(OCc2oc(-c3cccc(OC)c3)nc2C)cc1`, the 50% effective concentration (EC50) entry on Vitamin D3 receptor [1] is “Not Active”; in data set [6] (read-out: EC50), 1.09 µM. In data set [2], this molecule yielded a solubility (kinetic) at 500 µM of 38.2 µM (≈ 14.6 µg/mL). Moreover, the IC50 at Vitamin D3 receptor [3] (read-out: IC50) is 2.88 µM; on Vitamin D3 receptor [5] it was 6.7 µM; at Vitamin D3 receptor [7], “Not Active”. Also, the figures for the Activity (in data set [4]; in the data set with HEK-293T) were 7.7% and 67.6%, respectively.
